Measurements from patent publication EP1342779A1, “Means and methods for manipulating hypersensitivity-like responses” (Fornix Biosciences N.V., priority 2002, dated 2003).

Legend:
Ig light chain [1] = assay: Ig-LC-induced ear swelling after hapten challenge of mice passively sensitized with TNP-specific Ig-LC (inhibition by F991); assay type: in vivo
Source text: F991 is developed as an antagonist of Ig light chain. The working hypothesis for this compound is that it binds to Ig light chains and thereby prevents binding of light chains to their putative receptors. F991 is a 9-mer peptide derived from the endogenous protein uromodulin. The potency of F991 to inhibit Ig-LC induced cutaneous reactions (ear swelling responses) was studied. Our working hypothesis for this compound is that it is an antagonist of Ig-LC and binds to Ig-LC and thereby prevents binding of Ig-LC to their putative receptors. F991 was administered in different dosages, via various administration routes.
Indicated amounts of F991 per mouse were intravenously injected at 30 min before hapten challenge. At that same time point mice were injected (passively sensitized) with TNP-specific Ig-LC or vehicle (PBS). […]
Mice were i.v. sensitized with 2 µg TNP-specific Ig light chain at 30 min before ear challenge with TNP. Control mice were injected with PBS instead of Ig light chain. […]

DNFB-sensitized mice = assay: Contact sensitivity after active sensitization with DNFB, ear swelling; assay type: in vivo; details: F991 topically on the ears 4 hours before challenge
Procedure: • A. F991 was prepared as an ointment in Cremor Cetomacrogolis FNA and topically applied on the ear at 4 hours before hapten challenge. Subsequently, mice were passively sensitized with 2 µg TNP-specific Ig-LC n at 30 min before and ear thickness was measured 2 hours after hapten challenge of the ears. […] Therefore F991 was applied on the back of the mice instead of at the site of hapten challenge (ear). Mice were again sensitized and challenged as described above. […] This means that epicutaneous treatment should be done at the site of challenge (Figure 14). • C. Stability of F991 in ointment To determine the stability of F991 in ointment, different preparations of F991 in Cremor Cetamacrogolis FNA were tested for their activity after storage for 2-3 months at room temperature and at 4 degrees Celsius. The different preparations were applied at the ear as described in A. and subsequently ear swelling was monitored after hapten challenge of Ig-LC-sensitized animals. […] Mice were sensitized with a low molecular weight compound DNFB on the skin and footpads (on day 0 and 1). […]
Topical treatment of DNFB-sensitized mice at 4 hours before hapten challenge results in complete inhibition of the development of contact sensitivity response as determined by earswelling at 2 and 24 hours after challenge.

[2] = test system: myelin oligodendrocyte glycoprotein (MOG)-induced experimental allergic encephalomyelitis (EAE); assay: MOG-induced experimental allergic encephalomyelitis (EAE), mouse model for MS; assay type: in vivo
Source text: If light chains were involved in the activation of mast cells in patients with MS, the prediction is that F991 may be of therapeutic interest in the treatment of MS. We tested if F991 was able to prevent of reduce development clinical signs in an established mouse model for MS, i.e. myelin oligodendrocyte glycoprotein (MOG)-induced experimental allergic encephalomyelitis (EAE). Mouse were sensitized with antigenic peptide 35-55 from MOG in complete freund adjuvant. At the day of sensitization and 3 days later, mice also received an injection with pertussis toxin. In general, 10-12 days after the start of sensitization mice develop clinical signs of MS, which can be scored in degree of paralysis (0=no paralysis, 1=tail flaccidity, 2=hind limb weakness, 3=hind limb paralysis, 4=forelimb paralysis or loss of ability to right supine, 5=death). To investigate if F991 is able to prevent development of clinical signs of MS, mice were daily injected with 50 µg F991/animal i.p. starting at day -1 until day 21. […] Control mice developed disease with a mean day of onset of 11.8 and a mean clinical score of 2.3. There was a significant difference in disease burden (mean cumulative EAE score) between the F991 (mean 4.2) treated group and the control group (mean 18.3). […] (Figure 17).

Ig light chain [3] = assay: Stability of F991 in ointment, read out as activity in the ear swelling test after storage; assay type: in vivo, mice; details: Cremor Cetamacrogolis FNA, stored 2-3 months at room temperature and at 4 degrees Celsius
Procedure: • A. F991 was prepared as an ointment in Cremor Cetomacrogolis FNA and topically applied on the ear at 4 hours before hapten challenge. Subsequently, mice were passively sensitized with 2 µg TNP-specific Ig-LC n at 30 min before and ear thickness was measured 2 hours after hapten challenge of the ears. […] Therefore F991 was applied on the back of the mice instead of at the site of hapten challenge (ear). Mice were again sensitized and challenged as described above. […] This means that epicutaneous treatment should be done at the site of challenge (Figure 14). • C. Stability of F991 in ointment To determine the stability of F991 in ointment, different preparations of F991 in Cremor Cetamacrogolis FNA were tested for their activity after storage for 2-3 months at room temperature and at 4 degrees Celsius. The different preparations were applied at the ear as described in A. and subsequently ear swelling was monitored after hapten challenge of Ig-LC-sensitized animals. […] Mice were sensitized with a low molecular weight compound DNFB on the skin and footpads (on day 0 and 1). 5 days after the start of sensitization and 4 hours before local challenge with hapten, mice were treated with F991 on the ears.

[4] = 50 µg F991/animal i.p. daily from day -1 until day 21

F991: 9-mer peptide derived from the endogenous protein uromodulin, developed as an antagonist of Ig light chain; sequence probably AHWSGHCCL
block of the Ig-LC -induced ear swelling (Ig light chain [1]; 2 µg per mouse (1.9 nmole) i.v. 30 min before hapten challenge, 2 hours after challenge): completely block
induction of an ear swelling response (Ig light chain [1]; 50 µg F991 intraperitoneally at 4 or 24 hours before hapten challenge): completely prevented
Ig-LC -induced ear swelling after hapten challenge (Ig light chain [1]; 50 µg F991 subcutaneously at 4 or 24 hours before hapten challenge): completely inhibited
systemic inhibition of the Ig-LC effects (Ig light chain [1]; F991 ointment applied on the back of the mice instead of the ear): does not result in systemic inhibition
inhibition of the ear swelling induced after hapten challenge (Ig light chain [1]; F991 ointment in Cremor Cetomacrogolis FNA applied on the ear 4 hours before hapten challenge, 2 hours after challenge): dose-dependent inhibition
inhibition of the ear swelling response (Ig light chain [1]; different amounts of F991 i.v. 30 min before hapten challenge, ear thickness 2 hours after challenge): dose-dependent inhibition
ear swelling, contact sensitivity (DNFB-sensitized mice; 2 hours after challenge): completely inhibited
ear swelling, contact sensitivity (DNFB-sensitized mice; 24 hours after challenge): completely inhibited
development of clinical signs of paralysis [2, 4]: completely prevented
disease burden (mean cumulative EAE score) [2, 4]: 4.2
clinical symptoms after termination of the treatment ([2]; termination of F991 at 21 days after sensitization): some minor clinical symptoms
stability of F991 in ointment (activity after storage) (Ig light chain [3]): retained its activity
